Results on five compounds are retold here after US20140255341A1, “Tumor Selective Chemokine Modulation” (priority 2011, published 2014).

Data set [1] relates to liver-metastatic colorectal cancer tissues versus marginal liver tissues. Kind of data set: Chemokine production in matched liver-metastatic tumor and marginal liver tissues (ELISA, Taqman). Particulars: tumor tissues, NF-κB inhibitor at 20 μM. The format is cell-based, human. The procedure:
(§1) FIG. 9. Selective induction of CXCL10 and CCL5 in liver metastases compared to normal liver tissues: role of NF-κB. Matched samples of marginal liver tissues and liver-metastatic colorectal cancer tissues (3 biopsies in 1 ml in 24 well plate), were cultured for 24 hrs either untreated or treated with IFNα+poly-I:C+indomethacin and (A) analyzed for CCL5 and CXCL10 expression by Taqman. […] The supernatants were analyzed for CCL5 production by ELISA (see matched CXCL10 data in FIG. 4). (C) CAY10470 (20 μM) effects on liver glycogen phosphorylase mRNA expression in matched marginal liver tissue and liver-metastatic colorectal cancer.
Using matched tissue samples from 10 patients with metastatic colon cancer, we compared the responsiveness to the chemokine-modulating regimen between liver-metastatic tumor tissues and marginal tissues. […] This increased responsiveness of tumors compared to marginal tissues was not due to decreased survival of the marginal tissues, as determined by undisturbed expression levels of glycogen phosphorylase (FIG. 9C).
Background: An ELISA detects its analyte on a solid surface through an enzyme-linked reagent.

Data set [2] concerns marginal liver tissue and liver-metastatic colorectal cancer. The data set is described as follows: Glycogen phosphorylase mRNA expression as check of tissue survival. It counts as cell-based, human. Particulars: at 20 μM. The method, then: as §1
CAY10470, used in these experiments (at 20 μM), was non-toxic, as shown by similar expression of glycogen phosphorylase mRNA in untreated and treated tissues (FIG. 9C).

The next data set relates to macrophages. Kind of data set: Chemokine production by in vitro generated macrophages, ELISA of 48 hr. cultures. It counts as cell-based. The procedure:
FIG. 5. […] Data from one representative experiment of three. […] The concentrations of chemokines in 48 hr. cultures were analyzed by ELISA. […] In order to test the possibility of correcting the chemokine environment in the tumors with low ratios of Teff- to Treg-attracting chemokines, we tested in pilot studies the feasibility of modulating their production using different combinations of IFNα, indomethacin (COX1/2 inhibitor) and poly-I:C in individual populations of tumor-relevant cells (known to infiltrate tumors), such as macrophages, or fibroblasts.

Data set [3] has as its system colorectal cancer tumor tissues. The data set is described as follows: Ex vivo tumor/tissue explant culture, chemokine ELISA. Particulars: for CCL5 expression / production / CXCL10 expression / production: tumor tissues ex vivo, 48 hours, ELISA. The format is cell-based, human. The procedure: FIG. 6. […] (A) Fresh tumor samples from 11 patients with metastatic colorectal cancer were untreated or treated with IFNα and poly-I:C either individually or in combination for 48 hours. The release of CCL5 and CXCL10 into culture media was analyzed by ELISA. Numbers indicate the prevalence of tumors with each chemokine pattern (respective patterns A, B or C). (B) ELISA analysis of CCL5, CCL22 and CXCL10 in tumors untreated or treated with IFNα+pI:C, with or without indomethacin. (C) Heterogeneous response of different tumor lesions from the same patient (CCL5 and CXCL10 production) to the individual components of the chemokine-modulating cocktail. (D) Indomethacin and celecoxib enhance the IFNα/poly-I:C-induced Teff-attracting chemokine expression, but suppress Treg-attracting chemokine expression in colorectal cancer lesions. All cultures were for 48 hr. Combined data from the tumors of 3 different patients (n=3).
FIG. 7. […] (A) In-situ hybridization for respective chemokine mRNA (black grains) in tumor biopsies which were either left untreated or treated with the combination of indomethacin, IFNa and poly-I:C (IAP). (B) ELISA analysis of the chemokine contents in the supernatants of 48 hour-cultured tumor tissues (untreated or treated) from 10 different patients.
In order to test the feasibility of using these factors to manipulate the complex microenvironment of whole tumor tissues, involving all the above cell types and their interactions, we used an ex vivo tumor/tissue explant culture system previously developed to study migration of DCs. This system allowed us to avoid nonspecific activation of the chemokine-producing cells during tumor dissociation.

The subject of another data set is melanoma tissue. Particulars: melanoma tissue ex vivo, increasing concentrations of melphalan. The procedure:
FIG. 13. […] Tumor biopsies were cultured ex vivo in the presence of increasing concentrations of melphalan in the absence or presence of the triple combination (CAP) of the Celecoxib, IFNα and poly-I:C. Secretion levels of CC22 and CXCL10 were measured by ELISAs.

In a further data set the test system is fibroblasts. The data set is described as follows: Chemokine production by fibroblasts, ELISA of 48 hr. cultures. The format is cell-based. The text has this:
FIG. 5. Interplay between COX inhibitor indomethacin, IFNα and poly-I:C in the induction of a desirable patterns of chemokine expression in isolated cell cultures. (A) Dose-dependent impact of IFNa and poly-I:C on the production of Teff-, and Treg-attracting chemokines by in vitro generated macrophages (see M&M) and in fibroblasts (obtained from Cascade Biological). Data from one representative experiment of three. (B) Effects of indomethacin on Teff-, and Treg-attracting chemokines produced by macrophages (N=3) by ELISA analysis. The concentrations of chemokines in 48 hr. cultures were analyzed by ELISA.
In order to test the possibility of correcting the chemokine environment in the tumors with low ratios of Teff- to Treg-attracting chemokines, we tested in pilot studies the feasibility of modulating their production using different combinations of IFNα, indomethacin (COX1/2 inhibitor) and poly-I:C in individual populations of tumor-relevant cells (known to infiltrate tumors), such as macrophages, or fibroblasts.

The mark [4] stands for this setting: whole tumor tissues, COX inhibitor added to IFNα and poly-I:C.

Take `Nc1ccc2ncnc(NCCc3ccc(Oc4ccccc4)cc3)c2c1` [CAY10470]: in data set [1], the “CCL5 up-regulation by the chemokine-modulating regimen” value is listed as “blocked” and the “CXCL10 induction by IFNα/poly-I:C/indomethacin” value is listed as “completely abrogated”. For the same compound, the “toxicity (expression of glycogen phosphorylase mRNA in untreated and treated tissues)” value in data set [2] was “non-toxic”.
As for `COc1ccc2c(c1)c(CC(=O)O)c(C)n2C(=O)c1ccc(Cl)cc1` [indomethacin], the “production of CCL22” value with macrophages is reported as “suppression of CCL22 production”. In addition, the “effects of IFNα and poly-I:C on Teff- and Treg-attracting chemokines (CCL5, CXCL10 induction, CCL22 suppression)” value in the data set on macrophages (indomethacin added) is “further potentiated”. The “IFNα/poly-I:C-induced Teff-attracting chemokine expression” value in data set [3] (colorectal cancer lesions, 48 hr, tumors of 3 patients) was “enhance”. In addition, the Treg-attracting chemokine expression result in data set [3] (colorectal cancer lesions, with IFNα/poly-I:C, 48 hr, tumors of 3 patients) is given as “suppress”. Further, in data set [3] (setting [4]), the CCL22 levels entry is recorded as “reduced”; the “production of CCL5 induced by the combination IFNα and poly-I:C” value is reported as “further enhanced”; the “production of CXCL10 induced by the combination IFNα and poly-I:C” value was “further enhanced”.
For the compound `N[C@@H](Cc1ccc(N(CCCl)CCCl)cc1)C(=O)O` [melphalan], in the data set with melanoma tissue, the “ratio between Treg-attracting and Teff-attracting chemokines (CCL22/CXCL10)” value is on record as “undesirable elevation”.
With IFNα, in the data set with macrophages, the “production of CCL22” value is “strong suppressive effect”. Besides, the “production of CCL22” value with fibroblasts was “strong suppressive effect”. In data set [3], the “CCL5 expression / production” value is “variable chemokine expression” and the “CXCL10 expression / production” value is listed as “variable chemokine expression”.
As for “polyinosinic-polycytidylic acid [poly-I:C]”, in data set [3], the “CCL5 expression / production” value is “variable chemokine expression” and the “CXCL10 expression / production” value is given as “variable chemokine expression”.
